This assay concerns pituitaries removed from 20 day old female rats. Put plainly: In vitro growth hormone release study (incubated rat pituitaries, GH radioimmunoassay of the medium). The assay is classed as cell-based, rats (CD-1 strain). Conditions: two pituitaries in 1 ml lactated Ringer's, 36° C., ± SEM. Here is the method: Female rats of the CD-1 strain were housed in a constant temperature room at 24° C. with 14 hours light and 10 hours darkness. The rats were fed Purina brand rat chow ab libitum. All studies were started between 0800 and 1000 hours. Pituitaries were removed from 20 day old female rats. Two pituitaries were incubated at 36° C. in 1 ml of lactated Ringer's solution in 10 ml polytetrafluoroethylene beakers in a Dubnoff Shaker (90 cycles/min.). The pituitaries were incubated a total of 4 hours (P1, P2, I3, and I4). After two successive one hour preincubation periods (P1, P2), the peptide was added to the incubation medium hourly for 2 hours (I3, I4). This in vitro study was performed in triplicate and a standard radioimmunoassay of growth hormone present in the incubation medium was performed in duplicate. The hormonal activity was calculated as the difference (Δ) of growth hormone (GH) levels between I3, I4 and P2, i.e., (I3 -P2) and (I4 -P2). P values were calculated by Students' t test using six growth hormone values for each value recorded. The growth hormone radioimmunoassay reagents were distributed by the National Institute of Arthritis and Metabolite Disease Division (NIAMDD) program. The growth hormone values were calculated in terms of nanograms (ng) of a rat standard with a growth hormone potency of 0.61 units/mg.

From patent US4228156A, “Synthetic peptides having pituitary growth hormone releasing activity” (Beckman Instruments, Inc., priority 1979, dated 1980) come the findings set out here.

Non-standard residues stand in square brackets, D forms with d. Residues, ends and D or L forms follow the SMILES beside them.

On to `NC(=O)[C@H](Cc1ccccc1)NC(=O)[C@@H](Cc1c[nH]c2ccccc12)NC(=O)[C@H](N)Cc1c[nH]c2ccccc12` [H2 N--D-Trp--D-Trp--Phe--CONH2, H2 N-D-Trp-D-Trp-Phe-CONH2] (H-[dW]-[dW]-Phe-NH2), for which the “In vitro growth hormone release (ΔGH, I3-P2 and I4-P2)” value is given as 592 ± 237 ng.increment.GH/ml incubation (0.3μg peptide, P Value ~0.02); 943 ± 137 ng.increment.GH/ml incubation (1μg peptide, P Value <0.001); 1263 ± 293 ng.increment.GH/ml incubation (10μg peptide, P Value <0.001); 635 ± 165 ng.increment.GH/ml incubation (100μg peptide, P Value <0.01).
